{"source": "patent EP0232017A1", "about": "(priority 1986, dated 1987)"}
{"tested_on": "anaerobes and Gram positive aerobes", "assay_type": "cell-based", "details": "dipped-disc Biospectrum assay at 1 mg/ml; result in words, zone sizes only in image Tables XIII-XV"}
{"smiles": "CCCCCC(=O)N1C(=O)[C@@H]2CCCC[C@@H]21", "note": "(relative stereo) [Example 94, N-Hexanoyl-cis-3,4-tetramethylene-2-azetidinone]", "activity vs. anaerobes and Gram positive aerobes": "high activity"}
{"smiles": "CC(=O)N1CC(C(C)C)C1=O", "note": "(racemic) [2-azetidinone, 1-acetyl-3-(1-methylethyl)-, (±)-]", "activity vs. anaerobes and Gram positive aerobes": "high activity"}
{"smiles": "CCCCCCCC(=O)N1CC(C(C)C)C1=O", "note": "(racemic) [2-azetidinone, 3-(1-methlethyl)-1-(oxooctyl)-, (±)-]", "activity vs. anaerobes and Gram positive aerobes": "high activity"}
{"smiles": "CCCCCC(=O)N1CC(C(C)C)C1=O", "note": "(stereo not drawn) [2-azetidinone, 3-(1-methylethyl)-1-(1-oxohexyl)-]", "activity vs. anaerobes and Gram positive aerobes": "high activity"}
{"smiles": "CCCCC(=O)N1CC(C(C)C)C1=O", "note": "(racemic) [2-azetidinone, 3-(1-methylethyl)-1-(1-oxopentyl)-, (±)-]", "activity vs. anaerobes and Gram positive aerobes": "high activity"}
{"smiles": "CCCC(=O)N1CC(C(C)C)C1=O", "note": "(stereo not drawn) [2-azetidinone, 3-(1-methylethyl)-1-(1-oxobutyl)-]", "activity vs. anaerobes and Gram positive aerobes": "high activity"}
